Measured values taken from patent US10940139B2, “Compounds that interact with the Ras superfamily for the treatment of cancers, inflammatory diseases, rasopathies, and fibrotic disease” (Shy Therapeutics LLC, priority 2017, dated 2021).

Biological target: KRas G12D/Q61H double mutant (Homo sapiens (Human), UniProt P01116, G12D/Q61H)
Assay: Ras GTP binding domain inhibition assay (labeled GTP)
Settings: 20 μM compound; KRas G12D/Q61H double mutant; read-out: % Inhibition at 20 μM of K-Ras mutant and wild-type protein, KRas G12D Q61H
Description: Buffer-I: • 50 mM Tris, pH 7.5 • 150 mM NaCl (optional) • 1 mM MgCl2 • 1 mM DTT. • KRas G12D mutant protein was expressed as a His-tagged protein. Purified His-KRas G12D protein was diluted in buffer-I to a final concentration of 3-10 μg/ml. • 200 μl of the diluted His-KRas G12D protein was added to a nickel coated 96 well plate and incubated overnight at 4° C. • The next day, wells were washed 3× in 200 μl of Buffer-I. • Then 200 μl of Buffer-I were added to each well in the presence of 1% DMSO. • Tested compounds were added to the protein-coated wells at a concentration of 20 μM, and incubated for 3 hours at room temperature. While performing IC50 measurements a serial dilution of all tested concentrations was prepared.
Then 22 μl of Cy3-GTP or Cy5-GTP was added to each well. The labeled GTP was incubated for 45 min. at room temperature. • Following GTP incubation, wells were washed 3× in Buffer-I, and 200 μl of Buffer-I were added to each well. • Following washes, the amount of bound labeled-GTP was measured with an Eppendorf AF2200 plate reader.
By substituting KRas G12D mutant protein with KRas G12C mutant, KRas wild type, KRas Q61H mutant, KRas G12D/Q61H double mutant or KRas G12C/Q61H double mutant under the assay conditions described above, KRas G12C mutant KRas wild type, KRas Q61H mutant, KRas G12D/Q61H double mutant and KRas G12C/Q61H double mutant inhibition, respectively, were each determined.

Chain of KRas G12D/Q61H double mutant (P01116-2 other isoform, or with tags, fused parts or gaps G12D/Q61H): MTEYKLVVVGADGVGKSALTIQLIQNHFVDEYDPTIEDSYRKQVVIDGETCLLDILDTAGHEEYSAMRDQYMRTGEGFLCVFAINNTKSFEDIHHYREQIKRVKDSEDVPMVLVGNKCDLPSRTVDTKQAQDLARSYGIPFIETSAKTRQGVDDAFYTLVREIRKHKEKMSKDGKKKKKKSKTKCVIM

Row | inhibition at 20 µM [%] | SMILES
1 | 25 to 50 | CCc1nc2ccc(C(=O)Nc3ccccc3C(=O)N3CC(C)OC(C)C3)cc2nc1CC (stereo not drawn)
2 | 1 to 25 | CCNC(=O)COc1ccc(CN2CCN(C3CC3)c3ccc(F)cc32)cc1
3 | 25 to 50 | COC(=O)c1ccc(CCSc2nnc(COc3cccc(C)c3)o2)cc1
4 | 51 to 75 | CCN(C(=O)CCc1c(C)nc(-c2ccccn2)nc1O)C1CCCC1
5 | 25 to 50 | Cc1ccc(C)c(-c2csc(C3CN(Cc4ccccc4)CCO3)n2)c1 (stereo not drawn)
6 | 1 to 25 | Cc1ccc(OC(C)C(=O)Nc2ccccc2S(=O)(=O)NC(C)(C)C)c(Br)c1 (stereo not drawn)
7 | 25 to 50 | CC1CCCN(S(=O)(=O)c2ccc(NCc3ccc(C(=O)N(C)C(C)C)cc3)c([N+](=O)[O-])c2)C1 (stereo not drawn)
8 | 25 to 50 | O=C(NN(Cc1ccccc1)Cc1ccccc1)c1n[nH]c(=O)c2ccccc12
9 | 1 to 25 | Cc1ccc(OS(=O)(=O)NCCC(c2ccccc2)c2ccccc2)cc1
10 | 1 to 25 | Cc1n[nH]c(C2CN(C(=O)c3cnc(C)s3)CCO2)n1 (stereo not drawn)
11 | 1 to 25 | COc1cc(C(=O)NCC(c2cccs2)N(C)C)ccc1OCc1ccccc1Cl (stereo not drawn)
12 | 25 to 50 | O=[N+]([O-])c1cc(C(F)(F)F)ccc1NCc1ccc2c(c1)OCCCO2
13 | 25 to 50 | Cc1cc(C)c(-c2csc(C3CC3)n2)cc1C
14 | 25 to 50 | CCCOc1ccc2ccccc2c1CN(C)C(=O)C1CCCN(c2ncccn2)C1 (stereo not drawn)
15 | 25 to 50 | COCCCOC1(CSc2nnc(COc3cc(C)ccc3C)o2)CCCC1
16 | 25 to 50 | O=C(CCCOc1ccc(Cl)cc1Cl)N1N=CCC1(O)C(F)(F)F (stereo not drawn)
17 | 25 to 50 | CCCCc1ccc([N+]2=C3SCCCN3CC2(O)c2ccc(C)cc2)cc1 (stereo not drawn)

Same assay, conditions: 20 μM compound; read-out: % Inhibition at 20 μM KRas G12D Q61H

Row | inhibition at 20 µM [%] | SMILES
18 | 25 to 50 | COc1ccc(S(=O)(=O)N2CCCCCC2)cc1C(=O)NCCc1ccccc1
19 | 1 to 25 | Cc1cc(C)n2nc(CC(=O)N(Cc3ccc(F)cc3)C3CC3)nc2n1
20 | 1 to 25 | Cc1ccc(-c2nnc(C(C)N3CCCc4ccccc43)o2)cc1 (stereo not drawn)
21 | 1 to 25 | COc1cnc(CNC(=O)Cn2cnc3nc(-c4ccccn4)nc(N4CCOCC4)c32)[nH]c1=O [drawing 2824]
22 | 1 to 25 | Cc1ccc(NC(=O)c2sc3nc(-c4ncccn4)[nH]c(=O)c3c2C)c(C)c1
23 | 1 to 25 | CN(C)C1CN(C(=O)Nc2nc(-c3cccnc3)cs2)C1
24 | 25 to 50 | COc1ccc(NC(=O)CN(C)Cc2coc(-c3cccs3)n2)cc1
25 | 25 to 50 | Cc1cc(C(C)C)ccc1OCC(=O)N1N=CCC1(O)C(F)(F)F (stereo not drawn)
26 | 25 to 50 | Cc1ccc(C)c(NC(=O)c2ccccc2OCCOc2ccccc2)c1
27 | 1 to 25 | CC(C)N(Cc1ccccn1)Cc1nc2ccccc2n1C(F)F
28 | 25 to 50 | Cc1cnc(-c2ccccn2)nc1NC(=O)COCc1ccnc(O)c1 [drawing 2816]
29 | 25 to 50 | COc1cc(C(=O)Nc2nnc(-c3ccccn3)[nH]2)ccc1OCC(N)=O
30 | 25 to 50 | COc1ccccc1CN(Cc1cccs1)C(=O)c1ccc(N2CCCS2(=O)=O)cc1
31 | 1 to 25 | O=c1[nH]c(-c2cnccn2)nc2ccccc12
32 | 25 to 50 | CC(C)Cc1noc(CN(C)CC23CC4CC(CC(C4)C2)C3)n1
33 | 25 to 50 | c1ccc(Oc2ccccc2NCc2nc(C3CC3)no2)cc1
34 | 25 to 50 | CCc1noc(CN(C)c2nc(-c3ccccn3)nc3c2CCC3)n1
35 | 25 to 50 | O=C(c1ccccc1)N1CCCc2c(O)nc(-c3ccccn3)nc21
36 | 25 to 50 | COc1ccc(S(=O)(=O)N(CC(=O)N2CCCc3ccccc32)Cc2ccco2)cc1
37 | 25 to 50 | Cc1cccc(C)c1Oc1ccccc1NCc1nc(C2CC2)no1
38 | 25 to 50 | COC(=O)c1ccc2c(=O)[nH]c(-c3ccccn3)nc2c1

Row | inhibition at 20 µM [%] | SMILES
39 | 25 to 50 | CC(C)CCC(=O)Nc1nnc(-c2ccccn2)[nH]1
40 | 25 to 50 | Cc1ccc(-c2cc(C(=O)N(C3CC3)C(C)c3ccco3)on2)cc1 (stereo not drawn)
41 | 25 to 50 | O=C(CCc1ccc(F)cc1)Nc1nnc(-c2ccccn2)[nH]1
42 | 25 to 50 | FC(F)(F)c1ccc(N2CCCC2)c(NCc2nc(-c3ccco3)no2)c1
43 | 1 to 25 | O=C1NCCCC1Nc1cc(C(F)(F)F)nc(-c2ccccn2)n1 (stereo not drawn)
44 | 25 to 50 | O=c1[nH]c(-c2ccccn2)nc2ccccc12
45 | 51 to 75 | CS(=O)(=O)c1cccc(C(=O)N2CCCc3c(O)nc(-c4ccccn4)nc32)c1 [drawing 2647]
46 | 25 to 50 | O=C(CCNc1ncccn1)Nc1nnc(-c2ccccn2)[nH]1
47 | 1 to 25 | Cc1csc(C2CN(Cc3ccn(C)c(=O)c3)CCO2)n1 (stereo not drawn)
48 | 25 to 50 | CCNC(=O)CNc1nc(-c2ccccn2)nc(C)c1C
49 | 25 to 50 | O=C(c1cc(-c2ccccc2)on1)N(Cc1ccco1)C1CCCC1
50 | 1 to 25 | Cc1cccc(CN(Cc2ccccn2)Cc2ncc(C(C)(C)C)o2)c1
51 | 25 to 50 | O=C(c1csc2c(O)nc(-c3ccccn3)nc12)N1CCN(c2ccc(O)cc2)CC1
52 | 25 to 50 | Cc1ccccc1OCCn1c(CN2CCCCC2)nc2ccccc21
53 | 25 to 50 | O=C(CCCNc1ncccn1)Nc1nnc(-c2ccccn2)[nH]1
54 | 1 to 25 | COC(=O)CCN(Cc1ccc(Oc2ccc(OC)cc2)cc1)C1CCOCC1
55 | 25 to 50 | Cc1cc(C2CCCN2c2nccc(C(F)(F)F)n2)no1 (stereo not drawn)
56 | 25 to 50 | OCC1CCCN(c2nc(-c3ccccn3)nc3scc(-c4ccccc4)c23)C1 (stereo not drawn)
57 | 51 to 75 | CC1CCN(C(=O)c2csc3c(O)nc(-c4ccccn4)nc23)CC1 [drawing 2674]
58 | 25 to 50 | Cc1nc(-c2ccc(F)cc2)sc1C(=O)NCCN(C)c1ccccc1
59 | 25 to 50 | CN(Cc1ccc(C(=O)NCC(F)(F)F)cc1)Cc1ccc(F)cc1Cl

Same assay, conditions: 20 μM; read-out: KRas G12D Q61H % Inh.

Row | inhibition at 20 µM [%] | SMILES
60 | 51 to 75 | O=C(COc1ccc(F)cc1F)Nc1nnc(-c2ccccn2)[nH]1 [drawing 2458]
61 | 51 to 75 | O=C(Nc1nnc(-c2ccccn2)[nH]1)C1Cc2cc(Cl)ccc2O1 (stereo not drawn) [drawing 2548]
62 | 51 to 75 | O=C(Nc1nc(-c2ccccn2)cs1)C1CC(=O)N(c2ccc3c(c2)OCCO3)C1 (stereo not drawn) [drawing 2575]
63 | 51 to 75 | CCN(CC)C(=O)c1sc2[nH]c(-c3ccccn3)nc(=O)c2c1C [drawing 2589]
64 | 25 to 50 | O=C(Cc1cccc(F)c1)Nc1nc(-c2ccccn2)cs1 [drawing 2577]
65 | 51 to 75 | CC(C)c1noc(CCC(=O)Nc2nnc(-c3ccccn3)[nH]2)n1 [drawing 2486]
66 | 25 to 50 | O=C(Cn1cnc2ccccc2c1=O)Nc1nc(-c2ccccn2)cs1 [drawing 2574]
67 | 51 to 75 | CCc1ccccc1OCC(=O)Nc1nnc(-c2ccccn2)[nH]1 [drawing 2530]
68 | 51 to 75 | Cc1c(C(=O)Nc2nnc(-c3ccccn3)[nH]2)oc2ccccc12 [drawing 2465]
69 | 25 to 50 | Oc1nc(-c2ccccn2)nc2c1CCCN2 [drawing 2637]
70 | 51 to 75 | O=C(Nc1nnc(-c2ccccn2)[nH]1)c1ccc(OCC2CC2)cc1 [drawing 2522]
71 | 76 to 100 | N#CC1(c2ccc(C(=O)N3CCCC3CO)cc2)CC1 (stereo not drawn) [drawing 2632]
72 | 51 to 75 | O=C(Nc1nnc(-c2ccccn2)[nH]1)c1nc(N2CCOCC2)ncc1Cl [drawing 2508]
73 | 76 to 100 | COc1ccc(COCC(=O)N2CCCc3c(O)nc(-c4ccccn4)nc32)cc1 [drawing 2639]

Same assay, conditions: read-out: KRas G12D Q61H IC50

Row | IC50 [µM] | SMILES
74 | < 5 | COc1ccc(COCC(=O)N2CCCc3c(O)nc(-c4ccccn4)nc32)cc1 [drawing 2639]

Same assay, conditions: serial dilution; read-out: KRas G12D Q61H (classes E-H, IC50)

Row | IC50 [µM] | SMILES
75 | 5 to 10 | CS(=O)(=O)c1cccc(C(=O)N2CCCc3c(O)nc(-c4ccccn4)nc32)c1 [drawing 2647]
